Experimental data: US12215100B2, “Anticancer compounds” (Pharma Mar, S.A., priority 2018, dated 2025)

Key:
[1] = tested on: MDA-MB-231; experiment: SRB colorimetric cytotoxicity assay, MDA-MB-231; type: cell-based, human; conditions: Homo sapiens, breast adenocarcinoma
Source text: (§1) The aim of this assay is to evaluate the in vitro cytostatic (ability to delay or arrest tumor cell growth) or cytotoxic (ability to kill tumor cells) activity of the samples being tested.
(§2) A colorimetric assay, using sulforhodamine B (SRB) reaction has been adapted to provide a quantitative measurement of cell growth and viability (following the technique described by V. Vichai and K. Kirtikara (2006) Nature Protoc. 1, 1112-1116.)
(§3) This form of assay employs 96-well cell culture microplates. All the cell lines used in this study were obtained from the American Type Culture Collection (ATCC), unless otherwise indicated, and derive from different types of human cancer.
(§4) Cells were maintained in Dulbecco's Modified Eagle Medium (DMEM) (for A549, HT-29 and MDA-MB-231) or RPMI (for PSN-1) supplemented with 10% Fetal Bovine Serum (FBS), 2 mM L-glutamine, 100 U/mL penicillin and 100 U/mL streptomycin at 37° C., 5% CO2 and 98% humidity. For the experiments, cells were harvested from subconfluent cultures using trypsinization and resuspended in fresh medium before counting and plating.
(§5) Cells were seeded in 96 well microtiter plates, at 5×10^3 cells per well in aliquots of 150 μL, and allowed to attach to the plate surface for 18 hours (overnight) in drug free medium. After that, one control (untreated) plate of each cell line was fixed (as described below) and used for time zero reference value. […] After 72 hours treatment, the antitumor effect was measured by using the SRB methodology: Briefly, cells were washed twice with PBS, fixed for 15 min in 1% glutaraldehyde solution at room temperature, rinsed twice in PBS, and stained in 0.4% SRB solution for 30 min at room temperature. Cells were then rinsed several times with 1% acetic acid solution and air-dried at room temperature. SRB was then extracted in 10 mM trizma base solution and the absorbance measured in an automated spectrophotometric plate reader at 490 nm. Effects on cell growth and survival were estimated by applying the NCI algorithm (Boyd M R and Pauli K D. Drug Dev Res. 1995, 34, 91-104).
(§6) Using the mean±SD of triplicates, a dose-response curve was automatically generated using nonlinear regression analysis to a 4-parameter logistic curve. Three reference parameters were calculated (NCI algorithm) by automatic interpolation: GI50=compound concentration that produces 50% cell growth inhibition, as compared to control cultures; TGI=total cell growth inhibition (cytostatic effect), as compared to control cultures, and LC50=compound concentration that produces 50% net cell killing (cytotoxic effect).

[2] = tested on: HT29; experiment: SRB colorimetric cytotoxicity assay, HT29; type: cell-based, human; conditions: Homo sapiens, colorectal adenocarcinoma
Source text: as §1, §2, §3, §4, §5, §6

[3] = tested on: A549; experiment: SRB colorimetric cytotoxicity assay, A549; type: cell-based, human; conditions: Homo sapiens, lung carcinoma (NSCLC)
Source text: as §1, §2, §3, §4, §5, §6

[4] = tested on: PSN-1; experiment: SRB colorimetric cytotoxicity assay, PSN-1; type: cell-based, human; conditions: Homo sapiens, pancreatic adenocarcinoma
Source text: as §1, §2, §3, §4, §5, §6

[5] = tested on: Hep3B; conditions: liver cancer cell line; WO2002066046; cited from earlier work
[6] = tested on: SK-HEP-1; conditions: liver cancer cell line; WO2002066046; cited from earlier work
[7] = tested on: SNU-638; conditions: gastric cancer cell line; WO2002066046; cited from earlier work
[8] = tested on: AGS; conditions: gastric cancer cell line; WO2002066046; cited from earlier work
[9] = tested on: HepG2; conditions: liver cancer cell line; WO2002066046; cited from earlier work
[10] = tested on: SNU-216; conditions: gastric cancer cell line; WO2002066046; cited from earlier work
[11] = MDA-MB-231, 72 h, 72 hours treatment
[12] = HT-29, 72 h, 72 hours treatment

Row | SMILES | GI50 [1, 11] [nM] | GI50 [2, 12] [nM] | GI50 ([3]; A549, 72 h, 72 hours treatment) [nM] | GI50 ([4]; PSN1, 72 h, 72 hours treatment) [nM] | further results
1 | C=CCOc1cc([C@@H](CCC)NC(=O)[C@]2(C)CSC(/C(C)=N\O)=N2)oc(=O)c1 [Compound 74a] | 9.82 | 7.61 | 8.1 | 12.5 | 
2 | CCC[C@@H](NC(=O)[C@]1(C)CSC(/C(C)=N/O)=N1)c1cc(OCCCN)cc(=O)o1 [Compound 89] | 5890 | 8950 | 16500 | 6360 | 
3 | C=CCOc1cc([C@@H](CCC)NC(=O)[C@]2(C)CSC(/C(C)=N/OCCCNC(=O)OC(C)(C)C)=N2)oc(=O)c1 [Compound 152] | 26.6 | 19.5 | 19.5 | 21.3 | 
4 | CCC[C@@H](NC(=O)[C@]1(C)CSC(/C(C)=N/OCCCCOP(=O)(OC(C)(C)C)OC(C)(C)C)=N1)c1cc(OCC2CC2)cc(=O)o1 [Compound 191] | 612 | 554 | 496 | 875 | 
5 | CCC[C@@H](NC(=O)[C@]1(C)CSC(C(C)=O)=N1)c1cc(OC)cc(=O)o1 [Compound 42] | 4640 | 8730 | 24600 | 5190 | 
6 | CCC[C@@H](NC(=O)[C@]1(C)CSC(/C(C)=N/O)=N1)c1cc(C)cc(=O)o1 [Compound 78] | 43.8 | 43.8 | 24.9 | 32.8 | 
7 | CCC[C@@H](NC(=O)[C@]1(C)CSC(/C(C)=N/OCCCCOP(=O)(O)O)=N1)c1cc(OCC2CC2)cc(=O)o1 [Compound 192] | 16.4 | 7.15 | 9.07 | 27.9 | 
8 | C=CCOc1cc([C@@H](CCC)NC(=O)[C@]2(C)CSC(C(C)=NOCCCCN3CCOCC3)=N2)oc(=O)c1 [Compound 161] | 6.49 | 5.47 | 4.96 | 5.13 | 
9 | CCC[C@@H](NC(=O)[C@]1(C)CSC(/C(C)=N\O)=N1)c1cc(OCC2CC2)cc(=O)o1 [Compound 76a] | 4.51 | 4.27 | 3.8 | 4.51 | 
10 | C=CCOc1cc([C@@H](CCC)NC(=O)[C@]2(C)CSC(/C(C)=N/O[C@H]3O[C@H](CO)[C@@H](O)[C@H](O)[C@@H]3O)=N2)oc(=O)c1 [Compound 112] | 2110 | 1110 | 4040 | 1230 | 
11 | CCC[C@@H](NC(=O)[C@]1(C)CSC(/C(C)=N/O)=N1)c1cc(O)cc(=O)[nH]1 [Compound 82] | 1120 | 491 | 1640 | 355 | 
12 | CCC[C@@H](NC(=O)[C@]1(C)CSC(/C(C)=N/O[Si](c2ccccc2)(c2ccccc2)C(C)(C)C)=N1)c1cc(OCC2CC2)cc(=O)o1 [Compound 183] |  |  |  |  | GI50 ([1]; MDA-MB-231, 72 hours treatment): 5 nM; GI50 ([2]; HT-29, 72 hours treatment): 5.46 nM; GI50 ([3]; A549, 72 hours treatment): 5.76 nM; GI50 ([4]; PSN1, 72 hours treatment): 8.18 nM
13 | COC1=CC(=O)N(C(=O)[C@H]2CSC([C@H](CO)NC(=O)c3csc(/C=N/O)n3)=N2)C1 [althiomycin] |  |  |  |  | IC50 [5]: 880 nM; IC50 [6]: 810 nM; IC50 [7]: 770 nM; IC50 [8]: 850 nM; IC50 [9]: 1430 nM; IC50 [10]: 770 nM
14 | CCC[C@@H](NC(=O)[C@@]1(C)CSC(C(C)(OCC)OCC)=N1)c1cc(OC)cc(=O)o1 [Compound 129] | 3860 | 3630 | 6130 | 5450 | 
15 | C=Cc1cc([C@@H](CCC)NC(=O)[C@]2(C)CSC(/C(C)=N/O)=N2)oc(=O)c1 [Compound 79] | 344 | 397 | 424 | 477 | 
16 | C#CCOc1cc([C@@H](CCC)NC(=O)[C@]2(C)CSC(/C(C)=N\O)=N2)oc(=O)c1 [Compound 75a] | 2.71 | 1.18 | 2.12 | 2 | 
